According to the NIST ThermoML archive (doi:10.1021/je700594n):
± gives the expanded uncertainty stated by the source.

Assays:
[1] = Liquid; for mass density: 293.15 K, 101.33 kPa; for vapor or sublimation pressure: Ebulliometric method (Recirculating still)
[2] = refractive index (Na D-line) (dimensionless); conditions: 293.15 K; 101.33 kPa; Liquid; Standard Abbe refractometry

| mass density [1] | vapor or sublimation pressure ([1]; 383.1 K) | vapor or sublimation pressure ([1]; 404.24 K) | vapor or sublimation pressure ([1]; 417.99 K) | vapor or sublimation pressure ([1]; 426.54 K) | refractive index [2] | vapor or sublimation pressure ([1]; 379.88 K) | vapor or sublimation pressure ([1]; 401.28 K) | vapor or sublimation pressure ([1]; 415.26 K) | vapor or sublimation pressure ([1]; 423.97 K) | vapor or sublimation pressure ([1]; 375.63 K) | vapor or sublimation pressure ([1]; 392.7 K) | vapor or sublimation pressure ([1]; 403.8 K) | vapor or sublimation pressure ([1]; 410.86 K) | Structure (SMILES) |
| --- | --- | --- | --- | --- | --- | --- | --- | --- | --- | --- | --- | --- | --- | --- |
| 994.1 ± 1.2 kg/m3 | 26.66 ± 0.25 kPa | 53.33 ± 0.3 kPa | 79.99 ± 0.43 kPa | 101.32 ± 0.5 kPa | 1.5171 ± 0.0007 | – | – | – | – | – | – | – | – | COc1ccccc1 [anisole] |
| 717.6 ± 0.7 kg/m3 | – | – | – | – | 1.4055 ± 0.0007 | 26.66 ± 0.25 kPa | 53.33 ± 0.3 kPa | 79.99 ± 0.42 kPa | 101.32 ± 0.49 kPa | – | – | – | – | CCCCCCCCC [nonane] |
| 814.5 ± 1 kg/m3 | – | – | – | – | 1.4098 ± 0.0007 | – | – | – | – | 26.66 ± 0.31 kPa | 53.33 ± 0.37 kPa | 79.99 ± 0.53 kPa | 101.32 ± 0.61 kPa | CCCCCO [pentan-1-ol] |
